Each structure is given as a SMILES string. The source made the active and inactive calls. A value given as a limit tells only on which side of the number the result lay.

Here are results for 13 compounds from ChEMBL document CHEMBL1201862, “PubChem BioAssay data set” (2004).

For one assay, the target named is Caspase-8 (Homo sapiens, UniProt Q14790). As to the kind of experiment: inhibitors of purified CASP8 protease – biochemical, Z-IETD-R110 fluorescence, cherry-picked samples, selectivity assay for caspase-6 inhibitor project, dose response (AID 743294).
Chain of Caspase-8 (Q14790 217-374 limits assumed): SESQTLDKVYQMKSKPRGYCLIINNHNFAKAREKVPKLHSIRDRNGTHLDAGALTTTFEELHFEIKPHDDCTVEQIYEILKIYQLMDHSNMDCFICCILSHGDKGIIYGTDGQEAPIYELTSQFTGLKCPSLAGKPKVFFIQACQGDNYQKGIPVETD
Chain of Caspase-8 (Q14790 385-479 limits assumed): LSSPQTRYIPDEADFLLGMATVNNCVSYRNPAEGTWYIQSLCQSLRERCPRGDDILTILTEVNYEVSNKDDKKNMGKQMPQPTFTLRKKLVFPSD
The next assay has as its target Caspase-7 (Homo sapiens, UniProt P55210). The assay is described as follows: caspase-7 enzyme inhibition, selectivity check – biochemical, DEVD-R110 fluorescence, cherry-pick, selectivity assay for caspase-6 inhibitor project, dose response (AID 743295). It counts as functional.
Assay [1] deals with T1, Sentrin-specific protease 8 (Homo sapiens, UniProt Q96LD8).
T1 sequence (Q96LD8 whole entry): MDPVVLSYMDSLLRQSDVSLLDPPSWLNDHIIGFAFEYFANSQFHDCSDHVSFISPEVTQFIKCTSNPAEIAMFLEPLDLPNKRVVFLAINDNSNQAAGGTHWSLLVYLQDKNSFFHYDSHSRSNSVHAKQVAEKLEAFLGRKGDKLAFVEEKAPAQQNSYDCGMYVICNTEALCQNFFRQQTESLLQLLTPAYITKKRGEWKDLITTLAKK
It counts as functional.

The target of a further assay is Caspase-9 (Homo sapiens, UniProt P55211). The assay is described as follows: inhibitors of purified CASP9 protease – biochemical, fluorescence, plate reader, cherry-picked samples, selectivity assay for caspase-6 inhibitor project, dose response (AID 743293).
Chain of Caspase-9 (P55211 1-315 limits assumed): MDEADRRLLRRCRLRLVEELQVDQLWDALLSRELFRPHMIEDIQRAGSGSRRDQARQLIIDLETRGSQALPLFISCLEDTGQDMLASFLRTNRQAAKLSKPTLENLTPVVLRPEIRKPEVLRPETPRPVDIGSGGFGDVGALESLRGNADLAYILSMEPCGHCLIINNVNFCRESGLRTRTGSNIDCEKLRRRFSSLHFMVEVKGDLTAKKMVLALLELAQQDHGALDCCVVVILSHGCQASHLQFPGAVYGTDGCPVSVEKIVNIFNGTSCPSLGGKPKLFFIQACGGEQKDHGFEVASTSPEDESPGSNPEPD
Chain of Caspase-9 (P55211 331-416 limits assumed): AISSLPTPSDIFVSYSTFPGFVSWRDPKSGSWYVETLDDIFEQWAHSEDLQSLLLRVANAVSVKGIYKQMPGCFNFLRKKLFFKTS
For another assay, the target named is T2, Caspase-6 (Homo sapiens, UniProt P55212).
T2 sequence (P55212 whole entry): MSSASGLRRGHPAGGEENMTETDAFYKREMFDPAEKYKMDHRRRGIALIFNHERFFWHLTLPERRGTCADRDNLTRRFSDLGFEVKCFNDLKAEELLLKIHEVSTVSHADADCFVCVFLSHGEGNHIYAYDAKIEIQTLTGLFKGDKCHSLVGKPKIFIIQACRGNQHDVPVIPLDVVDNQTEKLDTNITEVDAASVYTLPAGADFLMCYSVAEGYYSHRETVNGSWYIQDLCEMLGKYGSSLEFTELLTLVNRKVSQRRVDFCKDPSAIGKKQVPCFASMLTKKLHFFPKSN
As to the kind of experiment: inhibition of CASP6 peptide cleavage – biochemical, VEID-R110 fluorescence, cherry-pick, dose response (AID 720632).

Assay [2] concerns the target T1, Sentrin-specific protease 8. It counts as functional. The source holds these as a separate data set.
Another assay concerns the target T3, Caspase-3 (Homo sapiens, UniProt P42574).
T3 sequence (P42574 whole entry): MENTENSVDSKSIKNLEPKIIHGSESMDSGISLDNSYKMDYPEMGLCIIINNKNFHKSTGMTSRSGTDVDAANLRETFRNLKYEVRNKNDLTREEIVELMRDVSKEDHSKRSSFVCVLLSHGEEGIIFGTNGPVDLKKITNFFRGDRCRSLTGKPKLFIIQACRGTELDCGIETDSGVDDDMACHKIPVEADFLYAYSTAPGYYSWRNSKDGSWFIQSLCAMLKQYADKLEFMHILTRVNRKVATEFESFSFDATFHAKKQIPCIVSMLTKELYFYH
The assay is described as follows: human caspase-3 protease activity blockade – biochemical, fluorescence, cherry-picked samples, selectivity assay for caspase-6 allosteric inhibitor project, dose response (AID 743291).

Assay [3] concerns the target T4, Oxysterols receptor LXR-beta (Homo sapiens, UniProt P55055).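 Note: agonist activity at LXR measured by a cell-based luminescence readout across a dose range, run as a counterscreen for daf-12 agonists; HEK293 cells with Gal4-LXR fusion and GAL4-driven luciferase reporter; potency for activation of Gal4-LXR reporter so compounds are agonists.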
T4 sequence (P55055 whole entry): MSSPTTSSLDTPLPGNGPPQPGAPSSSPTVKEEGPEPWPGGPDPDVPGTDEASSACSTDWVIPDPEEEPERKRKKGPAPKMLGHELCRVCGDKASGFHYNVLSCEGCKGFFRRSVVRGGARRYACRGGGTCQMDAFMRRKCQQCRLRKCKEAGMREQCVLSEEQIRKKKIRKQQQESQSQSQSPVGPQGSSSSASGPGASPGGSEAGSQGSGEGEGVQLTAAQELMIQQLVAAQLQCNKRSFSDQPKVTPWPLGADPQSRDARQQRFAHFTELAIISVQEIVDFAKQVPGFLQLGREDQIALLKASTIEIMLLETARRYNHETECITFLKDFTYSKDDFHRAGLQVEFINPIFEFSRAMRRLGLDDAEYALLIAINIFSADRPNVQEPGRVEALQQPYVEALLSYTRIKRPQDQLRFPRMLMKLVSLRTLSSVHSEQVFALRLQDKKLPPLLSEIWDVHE
It counts as functional, cell-based.

The target of the next assay is Kallikrein-7 (Homo sapiens, UniProt P49862). The assay is described as follows: Fluorescence Intensity-based biochemical primary high throughput dose response assay to identify activators of kallikrein-7 (K7) zymogen.
Chain of Kallikrein-7 (P49862 whole entry): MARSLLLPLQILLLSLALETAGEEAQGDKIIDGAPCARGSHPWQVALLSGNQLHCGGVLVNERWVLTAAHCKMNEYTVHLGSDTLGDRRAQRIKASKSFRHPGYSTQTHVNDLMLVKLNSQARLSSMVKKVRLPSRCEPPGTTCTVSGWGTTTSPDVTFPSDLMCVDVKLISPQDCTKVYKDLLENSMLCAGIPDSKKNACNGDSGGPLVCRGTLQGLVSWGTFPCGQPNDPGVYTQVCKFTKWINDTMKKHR
A short description of assay [4]: inhibition of ADAM10 peptide cleavage – biochemical, FRET peptide substrate, recombinant human ADAM10, selectivity assay for ADAM17 exosite inhibitor project, dose response (AID 743259).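 Note: ADAM10 enzyme cleaving a FRET peptide substrate.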
The nature of assay [5]: Luminescence Cell-Based Dose Retest to Confirm Inhibitors of Cancer Stem Cells. [Related pubchem assays (depositor defined):AID2717, AID2721]. The format is functional. Particulars: Homo sapiens.
The target of assay [6] is T5, Disintegrin and metalloproteinase domain-containing protein 17 (Homo sapiens, UniProt P78536). As to the kind of experiment: exosite inhibitors of ADAM17, dose response, biochemical (AID 743260).
T5 sequence (P78536 whole entry, the tested form may be a part): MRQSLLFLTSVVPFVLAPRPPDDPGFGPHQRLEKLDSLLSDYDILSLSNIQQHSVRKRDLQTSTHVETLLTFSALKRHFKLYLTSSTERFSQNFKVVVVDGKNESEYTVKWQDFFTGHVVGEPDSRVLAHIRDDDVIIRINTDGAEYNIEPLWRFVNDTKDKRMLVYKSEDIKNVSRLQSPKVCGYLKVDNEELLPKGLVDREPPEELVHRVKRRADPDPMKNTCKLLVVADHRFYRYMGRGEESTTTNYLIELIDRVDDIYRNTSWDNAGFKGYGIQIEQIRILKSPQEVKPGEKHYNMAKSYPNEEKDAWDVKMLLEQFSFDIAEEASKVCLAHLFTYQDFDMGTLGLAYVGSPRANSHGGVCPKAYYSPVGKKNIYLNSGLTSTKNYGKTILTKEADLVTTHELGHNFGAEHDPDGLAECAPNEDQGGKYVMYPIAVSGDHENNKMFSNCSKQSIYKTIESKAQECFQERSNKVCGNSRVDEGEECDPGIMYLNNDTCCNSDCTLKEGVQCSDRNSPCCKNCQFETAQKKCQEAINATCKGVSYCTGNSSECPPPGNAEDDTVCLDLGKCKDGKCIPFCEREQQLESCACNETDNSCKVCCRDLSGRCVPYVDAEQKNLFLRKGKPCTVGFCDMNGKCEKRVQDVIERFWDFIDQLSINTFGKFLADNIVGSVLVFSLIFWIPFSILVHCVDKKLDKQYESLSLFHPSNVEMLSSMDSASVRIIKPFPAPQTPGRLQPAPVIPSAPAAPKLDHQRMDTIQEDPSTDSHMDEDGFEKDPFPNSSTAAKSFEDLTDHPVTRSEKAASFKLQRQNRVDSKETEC
The nature of assay [7]: viability loss in HepG2 liver cells – cell-based, ATP luminescence, cherry-pick, set 6, cytotoxicity control, dose response (AID 1053125). It counts as functional.
Assay [8] is described as follows: cells. Particulars: A549.
Assay [9] can be described thus: cells. Particulars: HEK293.
Assay [10] can be described thus: cells.
Assay [11] can be described thus: inhibition of Env-driven cell fusion – HIV entry, plate reader, dry powder, dose response (AID 687023). The format is functional, cell-based.
A short description of assay [12]: blockers of HIV-1 envelope-mediated cell-cell fusion – cherry-pick, dose response (AID 652057). It counts as functional, cell-based.
The nature of assay [13]: cells. It counts as functional, cell-based. Particulars: HEK-CNG.
The nature of assay [14]: blockers of HIV-1 ZM109 envelope-driven cell-cell fusion – HeLa effector, CEM target cells, luciferase, cherry-pick, dose response (AID 652058).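 Note: luciferase signal from HIV-1 Env mediated cell-cell fusion of effector and target cells.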 The format is functional, cell-based.
The next assay addresses Galanin receptor type 3 (Homo sapiens, UniProt O60755). The assay is described as follows: Fluorescence-based cell-based primary high throughput dose response assay to identify antagonists of the Galanin Receptor 3 (GalR3). It counts as functional.
Another assay deals with Estrogen receptor beta (Homo sapiens, UniProt Q92731).
Chain of Estrogen receptor beta (Q92731 whole entry, the tested form may be a part): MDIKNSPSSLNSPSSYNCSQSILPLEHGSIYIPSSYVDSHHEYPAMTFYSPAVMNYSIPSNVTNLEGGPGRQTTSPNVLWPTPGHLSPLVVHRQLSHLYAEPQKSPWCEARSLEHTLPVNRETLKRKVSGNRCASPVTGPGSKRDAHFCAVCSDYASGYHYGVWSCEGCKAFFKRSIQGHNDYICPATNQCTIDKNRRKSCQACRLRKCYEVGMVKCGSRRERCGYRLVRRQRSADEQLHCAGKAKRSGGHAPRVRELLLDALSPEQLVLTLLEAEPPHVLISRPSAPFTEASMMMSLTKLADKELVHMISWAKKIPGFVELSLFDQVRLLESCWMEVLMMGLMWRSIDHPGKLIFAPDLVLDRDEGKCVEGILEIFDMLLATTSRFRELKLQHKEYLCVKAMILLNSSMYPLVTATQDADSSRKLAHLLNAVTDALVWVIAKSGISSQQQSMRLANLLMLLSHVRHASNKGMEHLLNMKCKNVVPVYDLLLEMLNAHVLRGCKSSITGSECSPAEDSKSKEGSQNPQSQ
A short description of assay [15]: HIV-1 AD8 envelope cell-cell fusion blockers – cherry-pick, dose response (AID 652062).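 Note: luciferase signal from cell-cell fusion driven by HIV-1 clade B AD8 Env; potency is for inhibitors of fusion seen as a drop in luminescence.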 The format is functional, cell-based.
A short description of assay [16]: viability loss in CEM21 cells – cell-based, plate reader, dry powder, cytotoxicity control, dose response (AID 687026). The format is functional.
The nature of assay [17]: potency of ADAM10 substrate cleavage blockers – biochemical, QFRET, dose response (AID 743254).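 Note: ADAM10 enzyme with the DM2 quenched FRET peptide as substrate; EDANS fluorescence gain as the protease cuts the substrate; inhibitor potency against ADAM10 proteolytic activity.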
The target of assay [18] is T5, Disintegrin and metalloproteinase domain-containing protein 17. The assay is described as follows: inhibition of ADAM17 substrate cleavage – biochemical, quenched FRET substrate, counter-screen for ADAM10 exosite inhibitor project, dose response (AID 743253).
A short description of assay [19]: viability loss in A549 lung cells – cell-based, 24 h, CellTiter-Glo luminescence, cherry-picks, cytotoxicity control, dose response (AID 1053115). It counts as functional. Particulars: A549, 24 h.
In a further assay the target is Paired box protein Pax-8 (Homo sapiens, UniProt Q06710). The assay is described as follows: PAX8 transcriptional activity inhibition in RMG-I – RMG-I cells, luciferase, cherry-pick, dose response (AID 687027).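 Note: luciferase reporter driven by Pax8 target thyroperoxidase promoter measured by SteadyGlo luminescence.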 It counts as functional, cell-based.
Chain of Paired box protein Pax-8 (Q06710 whole entry): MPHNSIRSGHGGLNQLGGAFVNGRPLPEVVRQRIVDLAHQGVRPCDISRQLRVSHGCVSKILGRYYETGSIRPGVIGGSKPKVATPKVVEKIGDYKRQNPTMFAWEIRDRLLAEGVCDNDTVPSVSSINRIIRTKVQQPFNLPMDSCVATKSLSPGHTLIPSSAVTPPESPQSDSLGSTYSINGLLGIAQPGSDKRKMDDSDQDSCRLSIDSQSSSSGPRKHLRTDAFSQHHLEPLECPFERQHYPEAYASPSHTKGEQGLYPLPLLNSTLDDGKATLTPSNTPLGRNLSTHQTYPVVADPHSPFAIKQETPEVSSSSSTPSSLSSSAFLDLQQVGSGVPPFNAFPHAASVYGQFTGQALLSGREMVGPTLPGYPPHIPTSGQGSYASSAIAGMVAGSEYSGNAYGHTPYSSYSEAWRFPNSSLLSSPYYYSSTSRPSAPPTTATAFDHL
Another assay has as its system HEK293. The assay is described as follows: viability loss in HEK293T cells – cell-based, ATP luminescence, cherry-pick samples, cytotoxicity control, dose response (AID 687005).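 Note: cells exposed to compound for 48 hours.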 The format is functional. Particulars: Homo sapiens.
Assay [20] is described as follows: HEK293 Cytotoxicity Assay Measured in Cell-Based System Using Plate Reader - 7071-01_Inhibitor_Dose_CherryPick_Activity_Set2. It counts as functional.
Assay [21] can be described thus: inhibitors of non-replicating M. tuberculosis, dose response, luciferase, dry powder (AID 651619). It counts as functional. Particulars: Mycobacterium tuberculosis.
Assay [22] is described as follows: inhibitors of non-replicating M. tuberculosis, dose response, luciferase, dry powder (AID 651620). It counts as functional. Particulars: Mycobacterium tuberculosis.
The nature of assay [23]: MITF Orthogonal Assay: SK-MEL-5 CTG Assay Measured in Cell-Based System Using Plate Reader - 2084-02_Inhibitor_Dose_DryPowder_Activity_Set7. The format is functional.
Assay [24] can be described thus: inhibitors of TRPM1-promoter reporter in SK-MEL-5 – cell-based, luciferase, dry powder, set 8, MITF inhibitor project, dose response (AID 624430). It counts as functional.
Assay [25] in a line: MITF: Counter assay: A375 proliferation Measured in Cell-Based System Using Plate Reader - 2084-03_Inhibitor_Dose_DryPowder_Activity_Set8. The format is functional. Particulars: A-375.
Assay [26] can be described thus: viability of BHK-21 cells – cell-based, secondary screen, cytotoxicity control for flavivirus guanylyltransferase probe project (AID 624078). The format is functional.
The target in the next assay is fMet-Leu-Phe receptor (Homo sapiens, UniProt P21462). As to the kind of experiment: formyl peptide receptor binders – dose response (AID 519). The format is functional.
Chain of fMet-Leu-Phe receptor (P21462 whole entry): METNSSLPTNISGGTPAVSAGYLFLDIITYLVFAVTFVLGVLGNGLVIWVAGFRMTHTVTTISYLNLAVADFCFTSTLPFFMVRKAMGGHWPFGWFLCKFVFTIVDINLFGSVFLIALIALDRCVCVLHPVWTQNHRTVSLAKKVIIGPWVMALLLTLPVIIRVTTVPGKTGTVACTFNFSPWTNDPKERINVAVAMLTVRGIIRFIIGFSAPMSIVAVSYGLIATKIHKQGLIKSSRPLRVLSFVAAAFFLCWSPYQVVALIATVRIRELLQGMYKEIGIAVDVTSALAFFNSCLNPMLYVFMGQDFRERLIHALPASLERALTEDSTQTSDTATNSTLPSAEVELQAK
Assay [27] can be described thus: Vero E6 cell cytotoxicity, dose response, cytotoxicity control for non-replicating M. tuberculosis project, secondary assay (AID 492998). It counts as functional, VeroE6. Particulars: Vero C1008.
The nature of assay [28]: THP-1 cell cytotoxicity, dose response, cytotoxicity control for non-replicating M. tuberculosis project (AID 489025). The format is functional.
Assay [29] in a line: cells. The format is functional.
Assay [30] can be described thus: HepG2 cell cytotoxicity, dose response, cytotoxicity control for non-replicating M. tuberculosis project (AID 489018). It counts as functional. Particulars: Mycobacterium tuberculosis.

Chain of Galanin receptor type 3 (O60755 whole entry): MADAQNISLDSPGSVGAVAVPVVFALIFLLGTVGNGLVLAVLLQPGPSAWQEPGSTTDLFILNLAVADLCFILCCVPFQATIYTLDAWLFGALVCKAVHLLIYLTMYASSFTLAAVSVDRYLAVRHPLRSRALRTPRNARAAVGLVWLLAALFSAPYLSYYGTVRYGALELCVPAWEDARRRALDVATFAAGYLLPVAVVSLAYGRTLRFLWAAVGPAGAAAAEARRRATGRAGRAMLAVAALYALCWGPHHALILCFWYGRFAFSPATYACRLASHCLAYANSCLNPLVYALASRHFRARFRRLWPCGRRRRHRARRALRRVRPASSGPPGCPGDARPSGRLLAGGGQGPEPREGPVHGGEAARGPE
Chain of Caspase-7 (P55210 24-198 limits assumed): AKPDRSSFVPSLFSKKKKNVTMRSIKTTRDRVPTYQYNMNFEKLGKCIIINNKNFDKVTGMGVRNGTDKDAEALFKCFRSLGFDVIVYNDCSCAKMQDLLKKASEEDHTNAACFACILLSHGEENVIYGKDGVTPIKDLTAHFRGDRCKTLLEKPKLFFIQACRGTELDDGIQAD
Chain of Caspase-7 (P55210 207-303 limits assumed): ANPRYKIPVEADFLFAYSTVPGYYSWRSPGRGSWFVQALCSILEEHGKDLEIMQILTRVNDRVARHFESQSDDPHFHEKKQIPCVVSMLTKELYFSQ

A word on the AC50: it is the concentration giving half of the maximal activity seen. As usually defined, the IC50 is the concentration needed to halve the response being measured. For the compound `O=C1Cc2ccccc2C(=O)N1`, the half-maximal activity concentration (AC50) on Caspase-8 is 1.09 µM (active); on Caspase-7, 1.32 µM (active); on Caspase-9, 1.34 µM (active); on Caspase-6, 1.22 µM (active); at Caspase-3 it was 0.74 µM (active). In addition, the values for the IC50 in [1] and in assay [2] were 0.0408 µM (active) and 0.702 µM (active), respectively.
For orientation: EC50 means the concentration at which the effect is half-maximal. Take `Cc1cc(NC(=O)c2nn3cccnc3c2Cl)no1`: in assay [3], the EC50 was > 67.5 µM (inactive).
Turning to `COc1ccc(OC)c(/C=C/C(=O)NCCc2nc3ccccc3[nH]2)c1`, the EC50 on Kallikrein-7 was > 69.5 µM (inactive).
For `Nc1cc(Cl)ccc1Oc1ccc2ccccc2c1`, the IC50 in [4] was 29.6 µM (inactive); in [6] it was > 69.5 µM (inactive). Moreover, the AC50 in assay [5] was 5.81 µM (active).
In the case of `CN1CCc2c(sc(NC(=O)c3cc(Cl)sc3Cl)c2C(N)=O)C1`, the AC50 in [7] is > 52 µM (inactive); in “cells [8]”, > 52 µM (inactive); in “cells [9]”, 33.7 µM (active); in the assay “cells [10]”, 19.9 µM (active).
Take `Cc1oc(-c2ccc(Cl)cc2)nc1CN1CCCC(C(=O)NCc2cccnc2)C1` (stereo unspecified): the half-maximal activity concentration (AC50) in assay [11] is 3.91 µM (active); in assay [12], 4.1 µM (active); in [14], < 0.26 µM (active); in [15] it was 4.75 µM (active); in [16], > 70 µM (inactive). Also, the EC50 in “cells [13]” is > 29.9 µM (inactive). Further, the concentration for half-maximal inhibition (IC50) on Galanin receptor type 3 was 2 µM (active); against Estrogen receptor beta, > 50 µM (not active).
Consider `Cc1cccc(C)c1-c1ccc(CN2C(CC(C)C)C(=O)N(Cc3cn(CCO)nn3)CCS2(=O)=O)cc1` (stereo unspecified), for which the IC50 in assay [17] is 12.3 µM (inactive); in [18], > 69.5 µM (inactive).
Regarding `Cc1ccc(S(=O)(=O)Nc2cccc3c2O[C@@H](CN(C)C(=O)Nc2ccc(C(F)(F)F)cc2)[C@@H](C)CN([C@H](C)CO)C3=O)cc1`, the values for the AC50 (in assay [19]; on Paired box protein Pax-8) were 42.6 µM (active) and 12.6 µM (active), respectively.
For the compound `Cc1ccc(S(=O)(=O)Nc2ccc3c(c2)C(=O)N([C@@H](C)CO)C[C@@H](C)[C@@H](CN(C)S(=O)(=O)c2ccc(Cl)cc2)OCCCC[C@H](C)O3)cc1`, the half-maximal activity concentration (AC50) (in the assay on HEK293; in [20]) was 24.4 µM (active) each time.
By IC90 is commonly meant the concentration at which the effect reaches the 90% level. Regarding `c1ccc(CSc2nnc(-c3cccnc3)o2)nc1`, the IC90 in [21] and in assay [22] was 16 µM (active) each time.
Turning to `CCN1CCN(C2=C(Nc3ccc(F)cc3)C(=O)c3ccccc3C2=O)CC1`, the AC50 in [23] is 11.9 µM (active); in assay [24], 3.49 µM (active); in assay [25] it was > 70 µM (inactive).
For orientation: CC50 means the concentration that lowers cell viability or growth by half. With `O=[N+]([O-])c1cccc(S(=O)(=O)Nc2cc(SCc3ccccc3)c(O)c3ccccc23)c1`, the CC50 in assay [26] was 14.9 µM (active).
For orientation: Ki means the equilibrium dissociation constant of an inhibitor or competing ligand from its target. Turning to `Cc1nn2c(=O)c3c([nH]c2c1-c1ccc(Cl)cc1)CCC3`, the inhibitory constant (Ki) on fMet-Leu-Phe receptor is 14.1 µM (active). Moreover, the values for the CC50 in assay [27], in assay [28] and in [30] were 14.1 µM (active), 11.2 µM (active) and 14.9 µM (active), respectively. In addition, the IC50 in the assay “cells [29]” is 10.3 µM (active).
